Measurements published in US12258368B2, “Disulfide-linked reversible terminators” (CENTRILLION TECHNOLOGY HOLDINGS CORPORATION, priority 2018, dated 2025).

Tested on: DNA polymerase ("CENT1")
Experiment: Enzymatic incorporation (primer extension) into a growing DNA chain, with runaway reaction
Type: biochemical
Conditions: for blockage of further extension after incorporation of the terminator: "runaway" reaction in the presence of all four unmodified dNTPs and a polymerase, lane 4; for further extension by the next base added after the cleavage: lane 6; for enzymatic incorporation: in the presence of DNA polymerase ("CENT1"), lane 3

SMILES | blockage of further extension after incorporation of the terminator | further extension by the next base added after the cleavage | continued extension in a "runaway" reaction after cleavage (all four unmodified dNTPs and a DNA polymerase, FIG. 4 lanes 7 and 8) | enzymatic incorporation
CSSCO[C@@H]1C[C@H](n2cc(C#CCNC(=O)OCCSSCCNC(=O)c3ccc(C4=c5cc6c(cc5Oc5cc7c(cc54)C(CS(=O)(=O)O)=CC(C)(C)N7)=NC(C)(C)C=C6CS(=O)(=O)O)cc3C(=O)O)c(=O)[nH]c2=O)O[C@@H]1COP(=O)(O)OP(=O)(O)OP(=O)(O)O [compound 75, (6-(3-carboxy-4-((2-((2-(((3-(1-((2R,4R,5R)-5-(((hydroxy((hydroxy(phosphonooxy)phosphoryl)oxy)phosphoryl)oxy)methyl)-4-((methyldisulfaneyl)methoxy)tetrahydrofuran-2-yl)-2,4-dioxo-1,2,3,4-tetrahydropyrimidin-5-yl)prop-2-yn-1-yl)carbamoyl)oxy)ethyl)disulfaneyl)ethyl)carbamoyl)phenyl)-2,2,10,10-tetramethyl-8-(sulfomethyl)-10,11-dihydro-2H-pyrano[3,2-g:5,6-g′]diquinolin-1-ium-4-yl)methanesulfonate] | excellent blockage | further extension with on base added | continued extension | excellent enzymatic incorporation
CC(=O)SCO[C@H]1C[C@H](n2cc(C#CCNC(=O)OC(C)(C)C)c(=O)[nH]c2=O)O[C@@H]1COP(=O)(O)OP(=O)(O)OP(=O)(O)O [compound 60, S-((((2R,3S,5R)-5-(5-(3-((tert-butoxycarbonyl)amino)prop-1-yn-1-yl)-2,4-dioxo-3,4-dihydropyrimidin-1 (2H)-yl)-2-(((hydroxy((hydroxy(phosphonooxy)phosphoryl)oxy)phosphoryl)oxy)methyl)tetrahydrofuran-3-yl)oxy)methyl) ethanethioate] | blockage of further extension after incorporation of the terminator | further extension by the next base added | – | can be used in enzymatic incorporation
